Measured values as given in article PMC6196722 (Xenobiotica; the fate of foreign compounds in biological …, 2017).

What was measured:
[1] = target: SULT1B1-WT (6xHis tagged) (Homo sapiens, UniProt O43704); assay: intrinsic fluorescence titration; format: binding
[2] = target: SULT1B1-WT (6xHis tagged) (Homo sapiens, UniProt O43704, L145V); assay: intrinsic fluorescence titration; format: binding
Chain of SULT1B1-WT (6xHis tagged) (Homo sapiens, UniProt O43704, L145V) (O43704 whole entry L145V): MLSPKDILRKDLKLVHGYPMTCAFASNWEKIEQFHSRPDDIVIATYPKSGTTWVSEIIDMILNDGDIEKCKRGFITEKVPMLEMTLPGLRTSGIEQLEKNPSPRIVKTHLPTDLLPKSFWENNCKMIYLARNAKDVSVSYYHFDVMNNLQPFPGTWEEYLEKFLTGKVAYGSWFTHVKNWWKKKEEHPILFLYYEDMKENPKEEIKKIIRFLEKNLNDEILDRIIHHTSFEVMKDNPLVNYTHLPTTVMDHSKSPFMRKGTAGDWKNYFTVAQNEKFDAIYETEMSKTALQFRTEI

Chain of SULT1B1-WT (6xHis tagged) (Homo sapiens, UniProt O43704) (O43704 whole entry): as the sequence (O43704 whole entry L145V) above, with V145L counted along it

SMILES: Nc1ncnc2c1ncn2[C@@H]1O[C@H](COP(=O)(O)OS(=O)(=O)O)[C@@H](OP(=O)(O)O)[C@H]1O [PAPS]
- Kd [1]: 872 nM
- Kd [2]: 980 nM

SMILES: Nc1ncnc2c1ncn2[C@@H]1O[C@H](COP(=O)(O)O)[C@@H](OP(=O)(O)O)[C@H]1O [PAP]
- Kd [2]: 405 nM
